The text below walks through data of ChEMBL document CHEMBL1201862, “PubChem BioAssay data set” (2004).

One may read the CC50 as the concentration giving 50% cytotoxicity. Broadly, the EC50 is the concentration needed to bring the measured effect to its halfway point. A word on the IC50: it is the point on the concentration scale where inhibition reaches its midpoint. As a reminder, the AC50 is the concentration at which the activity in the assay is half-maximal.

Test [1] in a line: Vero cell cytotoxicity, dose response, cytotoxicity control for Vif-APOBEC3G degradation inhibitor project, Vero cells (AID 1117358). Type of test: functional. As to conditions: Human immunodeficiency virus 1, Vero.
Test [2] in a line: cells.
The nature of test [3]: cytotoxicity toward NIH3T3 fibroblasts, dose response, counter-screen, cell-based, ATP luminescence, mouse fibroblasts (AID 2010).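 Further: cells exposed to compound for about 90 hours before reading.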 Type of test: functional. In general terms: The purpose of a counterscreen is to sort out artefacts and off-target activity.
Test [4] is described as follows: inhibitors of intracellular T. cruzi replication, confirmation, NIH3T3 host cells, beta-gal luminescence (AID 2044).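 Further: intracellular parasites grown in NIH/3T3 mouse fibroblasts as host cells; luminescent beta-galactosidase reporter signal from transgenic T. cruzi replicating inside host cells; inhibitors lower the luminescence signal.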 The format is functional, cell-based.
In test [5] the target is T1, Sentrin-specific protease 8 (Homo sapiens, UniProt Q96LD8).
T1 sequence (Q96LD8 whole entry): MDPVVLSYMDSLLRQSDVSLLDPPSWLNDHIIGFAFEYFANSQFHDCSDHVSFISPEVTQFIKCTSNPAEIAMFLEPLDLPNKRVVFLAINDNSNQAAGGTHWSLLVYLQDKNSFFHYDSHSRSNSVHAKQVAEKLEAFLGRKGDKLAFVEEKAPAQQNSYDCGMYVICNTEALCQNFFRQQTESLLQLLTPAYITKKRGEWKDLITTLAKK
The format is functional.

For test [6], the target named is T1, Sentrin-specific protease 8. Type of test: functional. This is another data set of the same source.
The nature of test [7]: inhibitors of Vif binding to APOBEC3G peptide, primary screen, biochemical, TR-FRET, GST-Vif 1-94, biotin-A3G peptide, dose response retest (AID 1117319).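 Further: inhibitors lower the FRET signal by blocking Vif and A3G binding.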 The format is functional. (In general: In TR-FRET formats the signal depends on donor and acceptor labels being close together.)
The target of test [8] is DNA damage-inducible transcript 3 protein (Mus musculus, UniProt P35639). The format is functional, Cricetulus griseus.
Test [9] can be described thus: SNU-C1 cell viability reduction, dose response, CellTiter-Glo luminescence (AID 1117323). The format is functional, cell-based. On the technique in general: ATP-based viability assays read luminescence as a measure of living cells.
The nature of test [10]: CellTiter-Glo luminescent dose response of DLD-1 viability loss (AID 1117352). The format is functional.
Test [11] can be described thus: Glucagon-like peptide 1 release potency, NCI-H716 cell line, dose-response, half-maximal inhibitory concentration (AID 1117344). The format is functional, cell-based.
Test [12] in a line: cytotoxicity toward Colo320 cells – cell-based, CellTiter-Glo luminescence, IC50, dose response (AID 1117334). The format is functional. As to conditions: COLO 320.
Test [13] can be described thus: Concentration-dependent survival of SW480 colon cancer line, luminescence detection with CellTiter-Glo, half-maximal inhibitory concentration (AID 1117338). The format is functional.
Test [14] in a line: RKO cell viability reduction, dose response, CellTiter-Glo luminescence (AID 1117322). The format is functional.
Test [15] can be described thus: cytotoxicity toward HT-29 cells – cell-based, CellTiter-Glo luminescence, IC50, dose response (AID 1117330). Type of test: functional.
Test [16] can be described thus: HCT116 cell viability decrease, GSK3B pretreatment – CellTiter-Glo, IC50, dose response (AID 1117339). The format is functional. Particulars: HCT-116.
The nature of test [17]: cytotoxicity toward HCT116 cells – cell-based, CellTiter-Glo luminescence, IC50, dose response (AID 1117332). Type of test: functional. As to conditions: HCT-116.
Test [18] is described as follows: half-maximal inhibitory concentration for glucagon-like peptide-1 release, STC-1 cell line, dose-response (AID 1117345). The format is functional, cell-based.
The target in test [19] is Procathepsin L (Homo sapiens, UniProt P07711). Description: cathepsin L inhibitors, dose response, counter-screen for M1/M17 aminopeptidase inhibitor project, biochemical, QFRET, 1536-well (AID 2214).
Test [20] deals with T2, Leucine aminopeptidase (Plasmodium falciparum 3D7, UniProt Q8IL11).
T2 sequence (Q8IL11 whole entry): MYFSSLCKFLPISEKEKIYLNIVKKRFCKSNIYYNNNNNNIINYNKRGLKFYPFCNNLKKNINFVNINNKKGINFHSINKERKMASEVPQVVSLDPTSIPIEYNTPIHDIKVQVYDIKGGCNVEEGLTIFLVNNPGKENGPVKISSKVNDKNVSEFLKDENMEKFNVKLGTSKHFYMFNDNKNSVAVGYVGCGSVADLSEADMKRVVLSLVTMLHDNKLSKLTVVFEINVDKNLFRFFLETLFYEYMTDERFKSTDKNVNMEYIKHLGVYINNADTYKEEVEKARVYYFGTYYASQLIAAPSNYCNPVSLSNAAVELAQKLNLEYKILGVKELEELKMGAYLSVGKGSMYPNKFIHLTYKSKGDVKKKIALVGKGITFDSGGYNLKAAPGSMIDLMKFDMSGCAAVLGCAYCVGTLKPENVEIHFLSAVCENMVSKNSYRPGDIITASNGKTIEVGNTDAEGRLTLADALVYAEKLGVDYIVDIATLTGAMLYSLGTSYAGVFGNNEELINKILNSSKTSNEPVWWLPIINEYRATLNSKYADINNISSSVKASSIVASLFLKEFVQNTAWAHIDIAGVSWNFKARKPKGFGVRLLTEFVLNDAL
The experiment in a line: P. falciparum M17LAP inhibitors, primary screen, biochemical, fluorogenic H-Leu-NHMec substrate, 1536-well (AID 1619). Type of test: functional.

For test [21], the target named is T3, Aspartyl aminopeptidase (Plasmodium falciparum 3D7, UniProt Q8I2J3).
T3 sequence (Q8I2J3 whole entry): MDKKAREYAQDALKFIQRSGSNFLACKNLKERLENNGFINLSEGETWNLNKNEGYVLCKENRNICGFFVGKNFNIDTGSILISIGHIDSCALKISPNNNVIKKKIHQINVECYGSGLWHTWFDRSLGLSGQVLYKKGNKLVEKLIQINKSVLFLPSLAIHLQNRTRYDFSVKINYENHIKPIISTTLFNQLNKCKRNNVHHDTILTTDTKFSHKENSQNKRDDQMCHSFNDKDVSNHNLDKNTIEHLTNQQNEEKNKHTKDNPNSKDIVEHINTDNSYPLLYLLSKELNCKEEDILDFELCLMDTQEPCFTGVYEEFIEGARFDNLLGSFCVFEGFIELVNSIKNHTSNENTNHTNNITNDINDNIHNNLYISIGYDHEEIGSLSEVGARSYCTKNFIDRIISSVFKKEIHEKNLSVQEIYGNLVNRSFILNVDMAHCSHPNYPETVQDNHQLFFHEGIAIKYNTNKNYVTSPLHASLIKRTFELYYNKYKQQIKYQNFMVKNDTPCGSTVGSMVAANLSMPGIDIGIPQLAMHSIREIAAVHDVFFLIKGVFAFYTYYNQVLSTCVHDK
Description: Counterscreen for inhibitors of M1 and M17 aminopeptidases: QFRET-based biochemical high throughput dose response assay for inhibitors of the Plasmodium falciparum M18 Aspartyl Aminopeptidase (PFM18AAP). [Related PubChem assays: 1619 (Screening assay (M17LAP inhibitors).), 1445 (Screening assay (M1AAP inhibitors).)].

The test system of test [22] is HT-1080. Description: cytotoxicity in HT1080 fibrosarcoma cells, cell-based, fluorescence readout (AID 620). Type of test: functional. As to conditions: Homo sapiens.
Test [23] in a line: HEp-2 cell cytotoxicity, dose response, cytotoxicity control for RSV inhibitor project, HTS (AID 2410). Type of test: functional. Particulars: human respiratory syncytial virus.
The nature of test [24]: Luminescence Cell-Based Dose Retest to Confirm Inhibitors of Cancer Stem Cells. [Related pubchem assays (depositor defined):AID2717, AID2721]. The format is functional. As to conditions: Homo sapiens.
Test [25] is described as follows: cells. Type of test: functional, cell-based.
Test [26] in a line: cytotoxicity in MIN6 insulinoma cells, dose response, cytotoxicity control, cell-based, mouse insulinoma (AID 2122).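 Further: confirmatory high-throughput counterscreen run to flag cytotoxic compounds; mouse MIN-6 beta cells carrying an insulin promoter eGFP reporter.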 The format is functional.
Test [27] in a line: insulin promoter down-regulators in MIN6 cells, imaging, high-content screening, mouse beta cells (AID 1628). The format is functional.
In test [28] the target is T4, Nuclear receptor subfamily 0 group B member 1 (Homo sapiens, UniProt P51843).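 Further: HEK293T cells transfected with SF-1 and DAX-1 plus StAR promoter luciferase reporter.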
T4 sequence (P51843 whole entry): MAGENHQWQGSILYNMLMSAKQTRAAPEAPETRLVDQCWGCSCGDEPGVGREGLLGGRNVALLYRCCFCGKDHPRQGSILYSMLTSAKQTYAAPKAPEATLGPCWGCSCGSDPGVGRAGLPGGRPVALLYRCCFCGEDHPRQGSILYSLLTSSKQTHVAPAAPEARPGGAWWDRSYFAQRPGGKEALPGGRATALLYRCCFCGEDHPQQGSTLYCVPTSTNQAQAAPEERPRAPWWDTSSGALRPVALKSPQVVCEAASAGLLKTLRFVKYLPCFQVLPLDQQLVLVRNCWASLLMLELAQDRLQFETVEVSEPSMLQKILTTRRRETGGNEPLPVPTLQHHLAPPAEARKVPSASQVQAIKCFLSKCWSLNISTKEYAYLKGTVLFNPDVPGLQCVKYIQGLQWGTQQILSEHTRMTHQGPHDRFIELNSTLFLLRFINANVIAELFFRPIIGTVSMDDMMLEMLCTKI
Type of test: functional, cell-based.

For test [29], the target named is E3 ubiquitin-protein ligase Mdm2 (Homo sapiens, UniProt Q00987). The experiment in a line: enhancers of MDM2-luciferase reporter signal, concentration-effect titration, project on inhibitors of MDM2 ubiquitin ligase, cellular assay, luminescent readout, 384-well plate format (AID 1394).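 Further: MDM2 E3 inhibitors raise luminescence so EC50 is for signal enhancement.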 Type of test: functional.
Test [30] concerns Vero. The experiment in a line: cells. The format is functional. As to conditions: Chlorocebus sabaeus.

Counter-ions that a name gives are not always drawn. Active and inactive are the calls of the source.
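Wherever AC50 is given: cells exposed to compound for roughly 70 hours or longer before luminescence read.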

Sequence of E3 ubiquitin-protein ligase Mdm2 (Q00987 whole entry): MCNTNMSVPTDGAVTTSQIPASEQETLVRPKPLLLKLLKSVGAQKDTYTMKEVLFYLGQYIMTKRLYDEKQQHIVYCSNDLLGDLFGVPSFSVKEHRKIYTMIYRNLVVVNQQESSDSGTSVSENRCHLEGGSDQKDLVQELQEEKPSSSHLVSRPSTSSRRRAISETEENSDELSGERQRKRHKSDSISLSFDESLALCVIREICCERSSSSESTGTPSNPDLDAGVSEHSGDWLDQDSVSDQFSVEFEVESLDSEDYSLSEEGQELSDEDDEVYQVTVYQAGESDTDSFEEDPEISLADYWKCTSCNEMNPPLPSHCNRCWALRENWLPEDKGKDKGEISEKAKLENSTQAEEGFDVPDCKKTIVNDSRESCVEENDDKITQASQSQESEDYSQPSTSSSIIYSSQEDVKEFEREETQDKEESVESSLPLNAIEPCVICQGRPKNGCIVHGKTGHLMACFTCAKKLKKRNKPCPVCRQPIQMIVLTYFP
Sequence of DNA damage-inducible transcript 3 protein (P35639 whole entry): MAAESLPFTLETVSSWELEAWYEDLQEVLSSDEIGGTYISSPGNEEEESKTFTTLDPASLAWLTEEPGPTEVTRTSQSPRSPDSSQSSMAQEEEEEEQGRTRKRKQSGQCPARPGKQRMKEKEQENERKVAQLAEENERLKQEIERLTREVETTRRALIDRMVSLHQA
Sequence of Procathepsin L (P07711 whole entry): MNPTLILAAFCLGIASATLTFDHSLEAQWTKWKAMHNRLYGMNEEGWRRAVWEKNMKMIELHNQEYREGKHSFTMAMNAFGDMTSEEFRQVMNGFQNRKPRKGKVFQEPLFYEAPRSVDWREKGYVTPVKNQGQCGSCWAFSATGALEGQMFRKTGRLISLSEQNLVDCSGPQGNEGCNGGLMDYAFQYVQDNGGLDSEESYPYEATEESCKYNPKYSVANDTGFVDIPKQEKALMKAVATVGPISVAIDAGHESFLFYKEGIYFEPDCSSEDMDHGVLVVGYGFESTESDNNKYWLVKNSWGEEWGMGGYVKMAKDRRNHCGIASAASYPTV

For the compound `Cc1cc(Cl)c(S(=O)(=O)NCC2CCCO2)cc1OCC(=O)NC1CCCCC1` (configuration not stated), the CC50 in [1] is > 40 µM (active).

Regarding `CN(C)CCN(C(=O)c1ccc(N2C(=O)CCC2=O)cc1)c1nc2cc3c(cc2s1)OCO3`, the results for the EC50 in [2], in test [3] and in [4] were 0.102 µM (active), > 60 µM (not active) and < 0.1 µM (active), respectively. The IC50 was 24.4 µM (active) in test [5] and 33.5 µM (active) in [6].

On to `Oc1ccc(Cl)cc1-c1cc(-c2ccccc2)[nH]n1`, for which, in test [7], the IC50 was > 100 µM (active). Besides, the “Absolute IC50 (CHOP)” value in test [8] came out at 10 µM. In [1], the CC50 is > 40 µM (active).

As to `C[C@@H]1CN(CCCn2c3ccccc3c3ccccc32)C[C@H](C)N1` [RIMCAZOLE HYDROCHLORIDE], the IC50 was 6.02 µM (inactive) in test [9]; 9.8 µM (inactive) in [10]; 6.37 µM (inactive) in test [11]; 15.9 µM (inactive) in test [12]; 2.35 µM (active) in test [13]; 2.18 µM (active) in [14]. Further, the IC50 was 4.02 µM (active) in [15], 3.85 µM (active) in test [16], 10.5 µM (inactive) in test [17] and > 40 µM (inactive) in [18].

For the compound `Cc1ccc(Nc2nnc(SC3CCOC3=O)s2)c(C)c1` (configuration not stated), the half-inhibitory concentration (IC50) in [19] was > 59.6 µM (not active); in test [20], 2.57 µM (active); in [21], > 73.5 µM (not active).

As for `Cc1ccc(NC2=Nc3ccccc3CC2)cc1`, the EC50 in [22] is > 50 µM (not active).

With `COc1ccc(/C=C/C(=O)Nc2ccc(C34CC5CC(CC(O)(C5)C3)C4)cc2)cc1OC`, the half-maximal cytotoxic concentration (CC50) in [23] was 1.48 µM (active); in test [30], 20.9 µM (active). Moreover, in [24], the AC50 is 0.647 µM (active). Besides, the IC50 in [25] is > 67.5 µM (inactive); in test [26], 5.21 µM (active); in test [27], 2.17 µM (active); in test [28] it was > 0.834 µM (active). The EC50 in test [29] is on record as 3.12 µM (not active).

As to `CC1=C(C(=O)NC(C)CCc2ccccc2)C2(CCC(C)CC2)OC1=O` (configuration not stated), in test [29], the EC50 is 78.3 µM (not active).
